Test system: Female C57BL/6 mice
Experiment: Animal study: lymphocytes and red blood cells in blood enumerated by hematology analyzer 24 hours after oral gavage
Assay type: in vivo
Settings: oral gavage 400 micromol/kg, 24 hours later, vs vehicle (PEG300)
Method: Female C57BL/6 mice 6-8 weeks old were treated by oral gavage with vehicle (PEG300) or compound 510 at 400 micromol/kg. 24 hours later, lymphocytes and red blood cells (RBC) in blood were enumerated by hematology analyzer (XT-2000i). The results are depicted in FIG. 1.

CC(C)C(=O)N(CCO)[C@H]1CCN(c2nc3cc(F)c(F)cc3nc2-c2cccc(OC(F)(F)F)c2)C1 [Compound 510, (S)—N-(1-(6,7-difluoro-3-(3-(trifluoromethoxy)-phenyl)quinoxalin-2-yl)pyrrolidin-3-yl)-N-(2-hydroxyethyl)isobutyramide]
number of lymphocytes in blood (FIG. 1A): substantially reduced | number of red blood cells (RBC) in blood (FIG. 1B): remained unchanged
